Experiments:
Test in all cases: relative viability (nuclei count vs DMSO), 5 days (fraction); higher = more cells survive
[1] = compound: CN(C)C/C=C/C(=O)Nc1cc2c(Nc3ccc(F)c(Cl)c3)ncnc2cc1O[C@H]1CCOC1 [Afatinib] + CC(C)C[C@H](NC(=O)[C@H](Cc1ccccc1)NC(=O)c1cnccn1)B(O)O [Bortezomib] (partner 0.002 µM)
In short: (§1)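 The day after seeding in 1536-well plates, lung cancer cell lines were treated by pin tool with a single drug, or with a fixed anchor-drug dose together with five library-drug doses (not always all listed) in √10 steps. After 5 days, a combined fix-and-stain solution (final 0.05% Triton X-100, 1% formaldehyde, 1 ug/ml Hoechst) was added. Nuclei counted on 4× images gave relative viability as treated counts over vehicle counts, reported as the median of duplicate plates.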

[2] = compound: CN(C)C/C=C/C(=O)Nc1cc2c(Nc3ccc(F)c(Cl)c3)ncnc2cc1O[C@H]1CCOC1 [Afatinib] + CC1(C)CCC(c2ccc(Cl)cc2)=C(CN2CCN(c3ccc(C(=O)NS(=O)(=O)c4ccc(N[C@H](CCN5CCOCC5)CSc5ccccc5)c(S(=O)(=O)C(F)(F)F)c4)cc3)CC2)C1 [Navitoclax] (partner 0.5 µM)
In short: as §1

[3] = compound: CN(C)C/C=C/C(=O)Nc1cc2c(Nc3ccc(F)c(Cl)c3)ncnc2cc1O[C@H]1CCOC1 [Afatinib] + Cc1nc(Nc2ncc(C(=O)Nc3c(C)cccc3Cl)s2)cc(N2CCN(CCO)CC2)n1 [Dasatinib] (partner 0.075 µM)
In short: as §1

[4] = compound: CN(C)C/C=C/C(=O)Nc1cc2c(Nc3ccc(F)c(Cl)c3)ncnc2cc1O[C@H]1CCOC1 [Afatinib] + CCNC(=O)c1noc(-c2cc(C(C)C)c(O)cc2O)c1-c1ccc(CN2CCOCC2)cc1 [Luminespib] (partner 0.01 µM)
In short: as §1

Cell Line | relative viability ([1]; first compound 0.005 µM) | relative viability ([1]; first compound 0.01581 µM) | relative viability ([1]; first compound 0.05 µM) | relative viability ([1]; first compound 0.1581 µM) | relative viability ([1]; first compound 0.5 µM) | relative viability ([2]; first compound 0.005 µM) | relative viability ([2]; first compound 0.01581 µM) | relative viability ([2]; first compound 0.05 µM) | relative viability ([2]; first compound 0.1581 µM) | relative viability ([2]; first compound 0.5 µM) | relative viability ([3]; first compound 0.005 µM) | relative viability ([3]; first compound 0.01581 µM) | relative viability ([3]; first compound 0.05 µM) | relative viability ([3]; first compound 0.1581 µM) | relative viability ([3]; first compound 0.5 µM) | relative viability ([4]; first compound 0.005 µM) | relative viability ([4]; first compound 0.01581 µM) | relative viability ([4]; first compound 0.05 µM) | relative viability ([4]; first compound 0.1581 µM) | relative viability ([4]; first compound 0.5 µM)
NCI-H2023 | 0.954 | 0.884 | 0.984 | 0.899 | 1.14 | 1.01 | 1.01 | 0.876 | 0.792 | 0.854 | 0.61 | 0.498 | 0.492 | 0.445 | 0.546 | 0.85 | 0.711 | 0.756 | 0.594 | 0.71
NCI-H2085 | 1.01 | 0.902 | 0.932 | 0.894 | 0.975 | 0.985 | 1.03 | 0.994 | 0.808 | 0.936 | 0.238 | 0.263 | 0.22 | 0.199 | 0.212 | 0.405 | 0.396 | 0.409 | 0.32 | 0.296
NCI-H2087 | 1.02 | 0.756 | 0.867 | 0.8 | 0.795 | 0.996 | 0.957 | 1.11 | 0.837 | 0.925 | 0.992 | 0.804 | 0.825 | 0.852 | 0.715 | 0.178 | 0.163 | 0.21 | 0.167 | 0.161
NCI-H2126 | 1.11 | 1.04 | 1.01 | 0.984 | 0.852 | 0.836 | 0.854 | 0.829 | 0.441 | 0.411 | 0.573 | 0.532 | 0.439 | 0.394 | 0.401 | 0.958 | 0.861 | 0.796 | 0.681 | 0.718
